Like-named read-outs stand apart in the source and are kept apart here.
Tests used:
[1] = test system: recombinant Nipah virus expressing ZsGreen fluorescence protein (rNiV-ZsG); test: microbe, parasite or virus in culture; conditions: Henipavirus nipahense, MRC5, 72 h, read-out: MRC-5 EC50
[2] = Toxicity testing: cell viability, Alamar Blue HS; conditions: human, MRC-5 cells (uninfected)
[3] = test system: recombinant Nipah virus expressing ZsGreen fluorescence protein (rNiV-ZsG); conditions: human
MRC-5 cells = test: Toxicity testing: cell viability, Alamar Blue HS; conditions: read-out: MRC-5 CC50; uninfected MRC-5 cells, 72 hours post-compound treatment

COc1c(CNC(=O)c2cc(C3CC3)nn2C)cccc1OCc1ccc(C(=O)N2CCN(S(=O)(=O)CC(C)C)CC2C)cc1 (stereo not shown) [Compound 8]
EC50 [1]: 0.194 µM
CC50 at 72 h [2]: > 5 µM

COc1c(CNC(=O)c2cc(C3CC3)nn2C)cccc1OCc1ccc(C(=O)N2CCN(S(C)(=O)=O)CC2)cc1 [Compound 9]
EC50 [1]: 0.508 µM
CC50 at 72 h [2]: > 5 µM

CC(=O)N1CCN(Cc2ccc(COc3cccc(CNC(=O)c4cc(C5CC5)nn4C)c3F)cc2)CC1 [Compound 13]
EC50 [1]: 0.628 µM
CC50 at 72 h [2]: > 5 µM

COc1c(CNC(=O)c2cc(C3CC3)nn2C)cccc1OCc1ccc(CN2CCN(S(=O)(=O)CC(C)C)CC2)cc1 [Compound 17]
EC50 [3]: 0.0297 µM
CC50 (MRC-5 cells): > 5 µM

COc1c(CNC(=O)c2cc(C3CC3)nn2C)cccc1OCc1ccc(CN2CCCC2)cc1 [Compound 18]
EC50 [1]: 0.124 µM
CC50 at 72 h [2]: > 5 µM

COc1c(CNC(=O)c2cc(C3CC3)nn2C)cccc1OCc1ccc(CN2CCN(S(=O)(=O)CC(C)C)CC2)cc1 [Compound 19]
EC50 [3]: 0.0146 µM
CC50 at 72 h [2]: > 5 µM

COc1c(CNC(=O)c2cc(C3CC3)nn2C)cccc1OCc1ccc(CN2CCN(C)CC2)cc1 [Compound 23]
EC50 [1]: 0.324 µM
CC50 at 72 h [2]: > 5 µM

Cn1nc(C2CC2)cc1C(=O)NCc1cccc(OCc2ccc(C(=O)N3CCN(S(C)(=O)=O)CC3)cc2)c1Cl [Compound 63]
EC50 [1]: 6.82 µM
CC50 at 72 h [2]: > 5 µM

Cn1nc(C2CC2)cc1C(=O)NCc1ccc(OCc2ccc(C(=O)N3CCN(S(C)(=O)=O)CC3)cc2)c(OC(F)(F)F)c1 [Compound 80]
EC50 [1]: 1.44 µM
CC50 at 72 h [2]: > 5 µM

COc1c(CNC(=O)c2cc(C3CC3)nn2C)cccc1OCc1cccc(CN2CCN(C(C)=O)CC2)c1 [Compound 88]
EC50 [1]: 0.144 µM
CC50 at 72 h [2]: > 5 µM

COc1c(CNC(=O)c2cc(C3CC3)nn2C)cccc1OCc1ccc(S(=O)(=O)N2CCN(S(C)(=O)=O)CC2)cc1 [Compound 91]
EC50 [1]: 1.67 µM
CC50 at 72 h [2]: > 5 µM

COc1c(CNC(=O)c2cc(C3CC3)nn2C)cccc1OCc1ccc(S(=O)(=O)N2CCN(C)CC2)cc1 [Compound 92]
EC50 [1]: 16.7 µM
CC50 at 72 h [2]: > 5 µM

COc1c(CNC(=O)c2cc(C3CC3)nn2C)cccc1OCc1ccc(C(=O)NC2CCN(S(C)(=O)=O)CC2)cc1 [Compound 94]
EC50 [1]: 1.05 µM
CC50 at 72 h [2]: > 5 µM

COc1c(CNC(=O)c2cc(C3CC3)nn2C)cccc1OCc1ccc(C(=O)N2CCC(N(C)S(C)(=O)=O)CC2)cc1 [Compound 96]
EC50 [1]: 16.1 µM
CC50 at 72 h [2]: > 5 µM

COc1c(CNC(=O)c2cc(C3CC3)nn2C)cccc1N(C)Cc1ccc(C(=O)N2CCN(S(C)(=O)=O)CC2)cc1 [Compound 113]
EC50 [1]: 1.5 µM
CC50 at 72 h [2]: > 5 µM

COc1c(CNC(=O)c2cc(C3CC3)nn2C)cccc1N1CCN(S(C)(=O)=O)CC1 [Compound 118]
EC50 [1]: 3.85 µM
CC50 at 72 h [2]: > 5 µM

Cc1c(CNCc2cc(C3CC3)nn2C)cccc1OCc1ccc(C(=O)N2CCN(S(C)(=O)=O)CC2)cc1 [Compound 127]
EC50 [1]: 20 µM
CC50 at 72 h [2]: > 5 µM

COc1c(CNC(=O)c2cc(C3CC3)nn2C)cccc1OCc1ccc(OC(=O)N2CCN(S(C)(=O)=O)CC2)cc1 [Compound 128]
CC50 at 72 h [2]: > 5 µM

COc1c(CNC(=O)c2cc(C3CC3)nn2C)cccc1Oc1ccc(C(=O)N2CCN(S(C)(=O)=O)CC2)nn1 [Compound 133]
EC50 [1]: 6.32 µM
CC50 at 72 h [2]: > 5 µM

COc1c(CNC(=O)c2cc(C3CC3)nn2C)cccc1OCc1ccc(COC(=O)N2CCN(S(=O)(=O)CC(C)C)CC2)cc1 [Compound 173]
EC50 [1]: 0.0239 µM
CC50 at 72 h [2]: > 5 µM

COc1c(CNC(=O)c2cc(C3CC3)nn2C)cccc1OCc1ccc(COC(=O)N2CCN(C(C)=O)CC2)cc1 [Compound 174]
EC50 [1]: 0.129 µM
CC50 at 72 h [2]: > 5 µM

CN1CCN(Cc2ccc(COc3ccc(CNC(=O)c4cc(C5CC5)nn4C)cc3Cl)cc2)CC1 [Compound 175]
EC50 [1]: 0.2 µM
CC50 at 72 h [2]: > 5 µM

From US12017997B2, “Host-targeted pan-respiratory antiviral small molecule therapeutics” (priority 2021, dated 2024)
